Assay in all cases: NCI anticancer screen, dose series, 48 h
The test system of experiment [1] is MALME-3M melanoma.
Experiment [2] has as its system ACHN renal.
For experiment [3], the system named is NCI-H23 lung.
Experiment [4] relates to M14 melanoma.
Experiment [5] relates to SNB-75 CNS.
The test system of experiment [6] is NCI-H522 lung.
Experiment [7] has as its system RPMI-8226 leukemia.
In experiment [8] the test system is CCRF-CEM leukemia.

Values joined by “and” are separate entries in the source; they are usually repeats but may differ in a detail not shown here. Equal values may be shown once.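 Where inhibition never reached the appropriate level, the endpoint shown equals the highest concentration tested. Otherwise, values were interpolated linearly from a five-concentration, 48-hour dose response in 96-well plates. GI50 marks 50% less growth. Definition used: TGI = concentration required for complete inhibition of growth.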

With `CCCCN(CCCC)c1ccc(C(=NC(C)CCCN(CC)CC)c2ccc(N(C)C)cc2)cc1` (stereo not drawn), the GI50 in experiment [1] was 0.785 µM; in experiment [2] it was 0.935 µM; in experiment [3], 0.889 µM; in experiment [4], 0.873 µM; in experiment [5], 0.734 µM; in experiment [6], 0.706 µM. Further, the GI50 is 0.95 µM in experiment [7] and 1.22 µM in experiment [8]. The TGI in experiment [1] stood at 1.62 µM; in experiment [2] it was 1.89 µM; in experiment [3], 1.93 µM; in experiment [4], 1.72 µM; in experiment [5] it was 1.56 µM; in experiment [6], 1.56 µM. The TGI came to 2.19 µM in experiment [7] and 3.87 µM in experiment [8].

As to `Nc1ccc(-c2ccc(N)cc2I)c(I)c1`, the GI50 was 11.9 µM in experiment [1]; 22.6 µM in experiment [2]; 17.8 µM in experiment [3]; 12.2 µM in experiment [4]; 10.8 µM in experiment [5]; 16.4 µM in experiment [6]. The figures for the GI50 in experiment [7] and in experiment [8] were 14 µM and 8.14 µM, respectively. In addition, the TGI in experiment [1] came out at 36.7 µM; in experiment [2], 89.6 µM; in experiment [3], 43.1 µM; in experiment [4], 34.4 µM; in experiment [5], 73.8 µM; in experiment [6], 36.7 µM. The figures for the TGI in experiment [7] and in experiment [8] were 37.7 µM and 43.3 µM, respectively.

`O=C(OCCBr)c1ccc(Cl)c([N+](=O)[O-])c1`: the GI50 in experiment [1] was 19.1 µM; in experiment [2], 18.8 µM; in experiment [3], 11.2 µM; in experiment [4] it was 16.4 µM; in experiment [5], 5.63 µM; in experiment [6], 0.957 µM. Further, the results for the GI50 in experiment [7] and in experiment [8] were 7.09 µM and 15.6 µM, respectively. The TGI is 43.4 µM in experiment [1]; 34.4 µM in experiment [2]; 27.2 µM in experiment [3]; 36.6 µM in experiment [4]; 12.2 µM in experiment [5]; 3.04 µM in experiment [6]. The TGI in experiment [7] was 19 µM; in experiment [8], 38.7 µM.

Consider `Nc1nc(N)c(N=O)c(OCC2CCCCC2)n1`, for which the GI50 is 3.06 µM and 7.32 µM in experiment [1]; 5.47 µM in experiment [2]; 9.71 µM in experiment [3]; 11.8 µM in experiment [4]; 10 µM in experiment [6]; 9.17 µM in experiment [7]. For the same compound, the GI50 in experiment [8] was 8.83 µM. Also, the TGI in experiment [1] was 36.8 µM and 52.7 µM; in experiment [2], > 100 µM and 34.3 µM; in experiment [3] it was greater than 100 µM; in experiment [4], > 100 µM and 52.2 µM; in experiment [5], 42.3 µM and 50.2 µM; in experiment [6], > 73.3 µM and 50.7 µM. In addition, the TGI was 98.7 µM and 36.1 µM in experiment [7]; greater than 100 µM in experiment [8].

With `CCN1C(=O)N(CC)C2C1NN=c1s/c(=C\c3cc4ccccc4[nH]3)c(=O)n12` (stereo not drawn), the GI50 in experiment [1] is 0.0388 µM; in experiment [2] it was less than 0.0157 µM; in experiment [3], 0.0445 µM; in experiment [4] it was 0.0237 µM; in experiment [5], less than 0.0149 µM; in experiment [6], less than 0.0164 µM. For the same compound, the results for the GI50 in experiment [7] and in experiment [8] were less than 0.0185 µM and 0.0208 µM, respectively. Besides, the TGI is 36.9 µM in experiment [1]; 20.3 µM in experiment [2]; greater than 76.9 µM in experiment [3]; greater than 100 µM in experiment [4]; 0.641 µM in experiment [5]; 1.02 µM in experiment [6]. Also, the results for the TGI in experiment [7] and in experiment [8] were 2.19 µM and greater than 100 µM, respectively.

For `Nc1n[nH]c2ccc([C@@H]3Nc4ccc5[nH]ncc5c4[C@H]4C5C=CC(C5)[C@@H]34)cc12` (stereo partly drawn), the GI50 is 0.655 µM in experiment [1]; 0.562 µM in experiment [2]; 0.446 µM in experiment [3]; 0.231 µM in experiment [4]; 0.176 µM in experiment [5]; 0.173 µM in experiment [6]. Moreover, the GI50 in experiment [7] is 0.355 µM; in experiment [8], 0.342 µM. The TGI in experiment [1] is 35.3 µM; in experiment [2] it was 47.8 µM; in experiment [3] it was 14 µM; in experiment [4], 1.13 µM; in experiment [5], 24.8 µM; in experiment [6], 12.7 µM. Also, the results for the TGI in experiment [7] and in experiment [8] were 11.5 µM and greater than 55.6 µM, respectively.

In the case of `CC1(C)CC[C@]2(C(=O)N3CCOCC3)CC[C@]3(C)C(=CC[C@@H]4[C@@]5(C)C/C(=C/c6ccncc6)C(=O)C(C)(C)[C@@H]5CC[C@]43C)[C@@H]2C1`, the GI50 was 1.57 µM in experiment [1]; 2.2 µM in experiment [2]; 2.41 µM in experiment [3]; 1.41 µM in experiment [4]; 3.21 µM in experiment [5]; 1.3 µM in experiment [6]. The GI50 in experiment [7] was 0.476 µM; in experiment [8], 0.871 µM. Besides, the TGI in experiment [1] was 4.59 µM; in experiment [2], 21.7 µM; in experiment [3], greater than 100 µM; in experiment [4] it was 5.23 µM; in experiment [5], greater than 100 µM; in experiment [6], 6.72 µM. In addition, the TGI in experiment [7] is 3.36 µM; in experiment [8] it was greater than 100 µM.

Regarding `O=C(CN1CCN(c2ccccc2)CC1)N1CCN(c2nnc(-c3ccc(Cl)cc3)c(-c3ccc(Cl)cc3)n2)CC1`, the GI50 in experiment [1] was 9.35 µM; in experiment [2], 5.59 µM; in experiment [3], 23.4 µM; in experiment [4], 9.99 µM; in experiment [5] it was 14 µM; in experiment [6], 10.7 µM. In addition, the figures for the GI50 in experiment [7] and in experiment [8] were 3.88 µM and 8.08 µM, respectively. For the same compound, the TGI is greater than 100 µM in experiment [1]; greater than 100 µM in experiment [2]; greater than 100 µM in experiment [3]; greater than 100 µM in experiment [4]; 71.1 µM in experiment [5]; 66.6 µM in experiment [6]. Also, the TGI in experiment [7] is 20 µM; in experiment [8] it was greater than 100 µM.

Consider `COc1ccc2c(c1)C(C)Cc1c(Cl)nc(C)nc1N2C` (stereo not drawn), for which the GI50 in experiment [1] was 12.4 µM; in experiment [2] it was 5.61 µM; in experiment [3] it was 3.48 µM; in experiment [4], 1.34 µM; in experiment [5] it was 1.94 µM; in experiment [6], 0.763 µM. In addition, the GI50 was 4.14 µM in experiment [7] and 3.17 µM in experiment [8]. In addition, the TGI in experiment [1] is 37.8 µM; in experiment [2], greater than 100 µM; in experiment [3] it was 37.2 µM; in experiment [4], 12.4 µM; in experiment [5], 9.04 µM; in experiment [6] it was 5.92 µM. The TGI was 36 µM in experiment [7] and greater than 100 µM in experiment [8].

For the origin of these results see PubChem BioAssay (NCI).
